From patent EP4667467A1, “PROTAC DEGRADERS OF MLLT1 AND/OR MLLT3” (Dark Blue Therapeutics Ltd, priority 2024, dated 2025)

Target: T1, MLLT1 (Homo sapiens, UniProt Q03111)
T1 construct: endogenous in cells; host or cells: MV4-11 (ATCC CRL-9591)
T1 sequence (Q03111 1-559): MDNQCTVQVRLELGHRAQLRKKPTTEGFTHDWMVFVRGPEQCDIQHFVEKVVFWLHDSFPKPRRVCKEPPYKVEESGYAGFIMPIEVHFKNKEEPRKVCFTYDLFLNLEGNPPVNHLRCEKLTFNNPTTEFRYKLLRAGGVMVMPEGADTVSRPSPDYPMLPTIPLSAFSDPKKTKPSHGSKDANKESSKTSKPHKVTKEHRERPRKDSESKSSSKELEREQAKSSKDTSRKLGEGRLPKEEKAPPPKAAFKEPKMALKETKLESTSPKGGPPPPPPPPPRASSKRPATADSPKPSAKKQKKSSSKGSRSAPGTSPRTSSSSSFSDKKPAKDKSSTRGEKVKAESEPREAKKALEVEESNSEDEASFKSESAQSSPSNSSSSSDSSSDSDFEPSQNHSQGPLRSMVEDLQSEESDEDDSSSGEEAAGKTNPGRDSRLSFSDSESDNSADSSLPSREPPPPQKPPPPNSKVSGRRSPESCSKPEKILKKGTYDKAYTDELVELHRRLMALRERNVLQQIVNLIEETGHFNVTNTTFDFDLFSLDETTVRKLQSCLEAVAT
Assay: MLLT1 Degradation Assay (JESS automated chemiluminescent detection, MV4-11 cells)
Assay type: cell-based
Settings: 24h, with respect to DMSO control; for MLLT1 % Degradation @ 0.01 µM: 0.01 µM (10 nM) test compound; for MLLT1 % Degradation @ 0.1 µM: 0.1 µM (100 nM) test compound; for MLLT 1 % Degradation @ 1 µM: 1 µM (1000 nM) test compound
Outline: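 MV4-11 cells were treated for 24 h at 37 °C, 5% CO2 with compound at 1000, 100 and 10 nM (0.1% DMSO). MLLT1 was quantified by automated capillary chemiluminescent immunodetection (JESS). Band peak areas were expressed as % degradation relative to DMSO control.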

Compound | MLLT1 % Degradation @ 0.01 µM | MLLT1 % Degradation @ 0.1 µM | MLLT 1 % Degradation @ 1 µM
CN1CCC[C@@H]1c1cc2cnc(NC(=O)c3ccc(OCCCC#Cc4cccc5c4CN(C4CCC(=O)NC4=O)C5=O)cc3)cc2[nH]1 (stereo partly drawn) [Example 56, 4-((5-(2-(2,6-dioxopiperidin-3-yl)-1-oxoisoindolin-4-yl)pent-4-yn-1-yl)oxy)-N-(2-((R)-1-methylpyrrolidin-2-yl)-1H-pyrrolo[3,2-c]pyridin-6-yl)benzamide] | A (Category A: A ≥ 75% degradation) | A (Category A: A ≥ 75% degradation) | A (Category A: A ≥ 75% degradation)
CN1CCC[C@H]1c1cc2cnc(NC(=O)c3ccc(CCCNc4cccc5c4C(=O)N(C4CCC(=O)NC4=O)C5=O)cc3)cc2[nH]1 (stereo partly drawn) [Example 37, 4-(3-{[2-(2,6-dioxopiperidin-3-yl)-1,3-dioxoisoindol-4-yl]amino}propyl)-N-{2-[(2S)-1-methylpyrrolidin-2-yl]-1H-pyrrolo[3,2-c]pyridin-6-yl}benzamide] | B (Category B: 50% ≤ B < 75% degradation) | A (Category A: A ≥ 75% degradation) | A (Category A: A ≥ 75% degradation)
CCN1CCC[C@@H]1c1cc2cnc(NC(=O)c3ccc(N4CCC(CC#Cc5cccc6c5CN(C5CCC(=O)NC5=O)C6=O)CC4)nc3)cc2[nH]1 (stereo partly drawn) [Example 73, 6-(4-(3-(2-(2,6-dioxopiperidin-3-yl)-1-oxoisoindolin-4-yl)prop-2-yn-1-yl)piperidin-1-yl)-N-(2-((R)-1-ethylpyrrolidin-2-yl)-1H-pyrrolo[3,2-c]pyridin-6-yl)nicotinamide] | B (Category B: 50% ≤ B < 75% degradation) | A (Category A: A ≥ 75% degradation) | B (Category B: 50% ≤ B < 75% degradation)
CN1CCC[C@@H]1c1cc2cnc(NC(=O)c3ccc(CCC#Cc4cccc5c4CN(C4CCC(=O)NC4=O)C5=O)cn3)cc2[nH]1 (stereo partly drawn) [Example 49, 5-(4-(2-(2,6-dioxopiperidin-3-yl)-1-oxoisoindolin-4-yl)but-3-yn-1-yl)-N-(2-((R)-1-methylpyrrolidin-2-yl)-1H-pyrrolo[3,2-c]pyridin-6-yl)picolinamide] | D (Category D: D < 25% degradation) | D (Category D: D < 25% degradation) | C (Category C: 25% ≤ C < 50% degradation)
CN1CCC[C@@H]1c1cc2cnc(NC(=O)c3ccc(-c4cnn(CCOC5CCN(c6cccc(C(=O)N[C@H]7CCC(=O)NC7=O)n6)CC5)c4)cc3)cc2[nH]1 [Example 61, N-((S)-2,6-dioxopiperidin-3-yl)-6-(4-(2-(4-(4-((2-((R)-1-methylpyrrolidin-2-yl)-1H-pyrrolo[3,2-c]pyridin-6-yl)carbamoyl)phenyl)-1H-pyrazol-1-yl)ethoxy)piperidin-1-yl)picolinamide] | A (Category A: A ≥ 75% degradation) | A (Category A: A ≥ 75% degradation) | B (Category B: 50% ≤ B < 75% degradation)
CN1CCC[C@@H]1c1cc2cnc(NC(=O)CCCCCC3CCN(c4cccc5c4C(=O)N(C4CCC(=O)NC4=O)C5=O)CC3)cc2[nH]1 (stereo partly drawn) [Example 43, 6-(1-(2-(2,6-dioxopiperidin-3-yl)-1,3-dioxoisoindolin-4-yl)piperidin-4-yl)-N-(2-((R)-1-methylpyrrolidin-2-yl)-1H-pyrrolo[3,2-c]pyridin-6-yl)hexanamide] | – | A (Category A: A ≥ 75% degradation) | B (Category B: 50% ≤ B < 75% degradation)
CN1CCC[C@@H]1c1cc2cnc(NC(=O)c3cccc(OCCCCCCCC#Cc4cccc5c4C(=O)N(C4CCC(=O)NC4=O)C5=O)c3)cc2[nH]1 (stereo partly drawn) [Example 26, 3-((9-(2-(2,6-dioxopiperidin-3-yl)-1,3-dioxoisoindolin-4-yl)non-8-yn-1-yl)oxy)-N-(2-((R)-1-methylpyrrolidin-2-yl)-1H-pyrrolo[3,2-c]pyridin-6-yl)benzamide] | D (Category D: D < 25% degradation) | D (Category D: D < 25% degradation) | C (Category C: 25% ≤ C < 50% degradation)
CN1CCC[C@@H]1c1cc2cnc(NC(=O)c3ccc(-c4cnn(CCCC5CCN(c6cccc7c6CN(C6CCC(=O)NC6=O)C7=O)CC5)c4)cc3)cc2[nH]1 (stereo partly drawn) [Example 35, 4-[1-(3-{1-[2-(2,6-dioxopiperidin-3-yl)-1-oxo-3H-isoindol-4-yl]piperidin-4-yl}propyl)pyrazol-4-yl]-N-{2-[(2R)-1-methylpyrrolidin-2-yl]-1H-pyrrolo[3,2-c]pyridin-6-yl}benzamide] | A (Category A: A ≥ 75% degradation) | A (Category A: A ≥ 75% degradation) | A (Category A: A ≥ 75% degradation)
CN1CCC[C@@H]1c1cc2cnc(NC(=O)c3ccc(N4CCC(N5CCN(c6cccc7c6C(=O)N(C6CCC(=O)NC6=O)C7=O)CC5)CC4)nc3)cc2[nH]1 (stereo partly drawn) [Example 64, 6-(4-(4-(2-(2,6-dioxopiperidin-3-yl)-1,3-dioxoisoindolin-4-yl)piperazin-1-yl)piperidin-1-yl)-N-(2-((R)-1-methylpyrrolidin-2-yl)-1H-pyrrolo[3,2-c]pyridin-6-yl)nicotinamide] | B (Category B: 50% ≤ B < 75% degradation) | B (Category B: 50% ≤ B < 75% degradation) | A (Category A: A ≥ 75% degradation)
CN1CCC[C@@H]1c1cc2cnc(NC(=O)c3ccc(CC4CCN(c5cccc6c5C(=O)N(C5CCC(=O)NC5=O)C6=O)CC4)cc3)cc2[nH]1 (stereo partly drawn) [Example 3, 4-((1-(2-(2,6-dioxopiperidin-3-yl)-1,3-dioxoisoindolin-4-yl)piperidin-4-yl)methyl)-N-(2-((R)-1-methylpyrrolidin-2-yl)-1H-pyrrolo[3,2-c]pyridin-6-yl)benzamide] | C (Category C: 25% ≤ C < 50% degradation) | A (Category A: A ≥ 75% degradation) | A (Category A: A ≥ 75% degradation)
CN1CCC[C@@H]1c1cc2cnc(NC(=O)c3ccc(N4CCC(OCC5CCN(c6cccc7c6C(=O)N(C6CCC(=O)NC6=O)C7=O)CC5)CC4)nc3)cc2[nH]1 (stereo partly drawn) [Example 18, 6-(4-((1-(2-(2,6-dioxopiperidin-3-yl)-1,3-dioxoisoindolin-4-yl)piperidin-4-yl)methoxy)piperidin-1-yl)-N-(2-((R)-1-methylpyrrolidin-2-yl)-1H-pyrrolo[3,2-c]pyridin-6-yl)nicotinamide] | B (Category B: 50% ≤ B < 75% degradation) | A (Category A: A ≥ 75% degradation) | A (Category A: A ≥ 75% degradation)
CN1CCC[C@@H]1c1cc2cnc(NC(=O)c3ccc(N4CCC(CC#Cc5cccc6c5CN(C5CCC(=O)NC5=O)C6=O)CC4)nc3)cc2[nH]1 (stereo partly drawn) [Example 16, 6-(4-(3-(2-(2,6-dioxopiperidin-3-yl)-1-oxoisoindolin-4-yl)prop-2-yn-1-yl)piperidin-1-yl)-N-(2-((R)-1-methylpyrrolidin-2-yl)-1H-pyrrolo[3,2-c]pyridin-6-yl)nicotinamide] | A (Category A: A ≥ 75% degradation) | A (Category A: A ≥ 75% degradation) | B (Category B: 50% ≤ B < 75% degradation)
CN1CCC[C@@H]1c1cc2cnc(NC(=O)c3ccc(CCCCC#Cc4cccc5c4CN(C4CCC(=O)NC4=O)C5=O)nc3)cc2[nH]1 (stereo partly drawn) [Example 10, 6-(6-(2-(2,6-dioxopiperidin-3-yl)-1-oxoisoindolin-4-yl)hex-5-yn-1-yl)-N-(2-((R)-1-methylpyrrolidin-2-yl)-1H-pyrrolo [3,2-c]pyridin-6-yl) nicotinamide] | A (Category A: A ≥ 75% degradation) | A (Category A: A ≥ 75% degradation) | B (Category B: 50% ≤ B < 75% degradation)
CN1CCC[C@@H]1c1cc2cnc(NC(=O)c3ccc(CCCC#Cc4cccc5c4CN(C4CCC(=O)NC4=O)C5=O)nc3)cc2[nH]1 (stereo partly drawn) [Example 12, 6-(5-(2-(2,6-dioxopiperidin-3-yl)-1-oxoisoindolin-4-yl)pent-4-yn-1-yl)-N-(2-((R)-1-methylpyrrolidin-2-yl)-1H-pyrrolo[3,2-c]pyridin-6-yl)nicotinamide] | B (Category B: 50% ≤ B < 75% degradation) | A (Category A: A ≥ 75% degradation) | A (Category A: A ≥ 75% degradation)
